In PubChem BioAssay AID248 (DTP/NCI, 2004):
Inconclusive results and toxic doses are left out. Cut-off read from the data, not from the text of the source: active = T/C of 150% or more; inactive = T/C below 125%.

Test system: L1210 leukemia ip in BDF1 mice, survival T/C
Experiment: NCI In Vivo Anticancer Drug Screen. Data for tumor model L1210 Leukemia (intraperitoneal) in B6D2F1 (BDF1) mice
Settings: endpoint: mean survival time, higher = longer survival
Procedure, shortened: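 Each compound was tested against a transplantable tumor grown in mice. The endpoint was survival, with treated animals benchmarked against vehicle controls as a simple ratio.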

[1] = dose: 25.0 mg/kg/injection, schedule: Q04DX002 (ip), vehicle: Klucel (hydroxypropylcellulose) (HPC)
[2] = dose: 50.0 mg/kg/injection, schedule: Q04DX002 (ip), vehicle: Klucel (hydroxypropylcellulose) (HPC)
[3] = dose: 100.0 mg/kg/injection, schedule: Q04DX002 (ip), vehicle: Klucel (hydroxypropylcellulose) (HPC)
[4] = dose: 100.0 mg/kg/injection, schedule: Q01DX001 (ip), vehicle: saline
[5] = dose: 200.0 mg/kg/injection, schedule: Q01DX001 (ip), vehicle: saline
[6] = dose: 400.0 mg/kg/injection, schedule: Q01DX001 (ip), vehicle: saline
[7] = dose: 100.0 mg/kg/injection, schedule: Q01DX009 (ip), vehicle: saline
[8] = dose: 200.0 mg/kg/injection, schedule: Q01DX009 (ip), vehicle: saline
[9] = dose: 50.0 mg/kg/injection, schedule: Q01DX001 (ip), vehicle: carboxymethylcellulose (CMC)
[10] = dose: 100.0 mg/kg/injection, schedule: Q01DX001 (ip), vehicle: carboxymethylcellulose (CMC)
[11] = dose: 200.0 mg/kg/injection, schedule: Q01DX001 (ip), vehicle: carboxymethylcellulose (CMC)
[12] = dose: 400.0 mg/kg/injection, schedule: Q01DX001 (ip), vehicle: carboxymethylcellulose (CMC)
[13] = dose: 100.0 mg/kg/injection, schedule: Q01DX009 (ip), vehicle: Klucel (hydroxypropylcellulose) (HPC)
[14] = dose: 200.0 mg/kg/injection, schedule: Q01DX009 (ip), vehicle: Klucel (hydroxypropylcellulose) (HPC)
[15] = dose: 400.0 mg/kg/injection, schedule: Q01DX009 (ip), vehicle: Klucel (hydroxypropylcellulose) (HPC)
[16] = dose: 100.0 mg/kg/injection, schedule: Q01DX001 (ip), vehicle: saline with Tween-80
[17] = dose: 200.0 mg/kg/injection, schedule: Q01DX001 (ip), vehicle: saline with Tween-80
[18] = dose: 100.0 mg/kg/injection, schedule: Q04DX003 (ip), vehicle: saline
[19] = dose: 200.0 mg/kg/injection, schedule: Q04DX003 (ip), vehicle: saline
[20] = dose: 400.0 mg/kg/injection, schedule: Q04DX003 (ip), vehicle: saline
[21] = dose: 25.0 mg/kg/injection, schedule: Q04DX003 (ip), vehicle: saline
[22] = dose: 50.0 mg/kg/injection, schedule: Q04DX003 (ip), vehicle: saline

Measured: T/C

O=C(O)c1cc(CBr)cc(CBr)c1
inactive: dose: 3.13 mg/kg/injection, schedule: Q01DX009 (ip), vehicle: saline with Tween-80 97 % of control | dose: 6.25 mg/kg/injection, schedule: Q01DX001 (ip), vehicle: saline with Tween-80 102 % of control | dose: 6.25 mg/kg/injection, schedule: Q01DX009 (ip), vehicle: saline with Tween-80 101 % of control | dose: 12.5 mg/kg/injection, schedule: Q01DX001 (ip), vehicle: saline with Tween-80 113 % of control

Cc1cc(=O)oc2c(OC(=O)N(CCCl)CCCl)c(OC(=O)N(CCCl)CCCl)ccc12
inactive: [1] 90 % of control | [2] 94 % of control | [3] 97 % of control | dose: 200.0 mg/kg/injection, schedule: Q04DX002 (ip), vehicle: Klucel (hydroxypropylcellulose) (HPC) 90 % of control | dose: 400.0 mg/kg/injection, schedule: Q04DX002 (ip), vehicle: Klucel (hydroxypropylcellulose) (HPC) 103 % of control

CC(C)=CCC(C)c1ccncc1 (configuration not stated)
inactive: [4] 102 % of control | [5] 97 % of control | [6] 102 % of control

CC(=O)CC(=O)Nc1ccc(C)c(C)c1
inactive: [7] 102 % of control | [8] 102 % of control | dose: 400.0 mg/kg/injection, schedule: Q01DX009 (ip), vehicle: saline 93 % of control

CC(=O)Nc1ccc(N(CCO)CCO)cc1
inactive: dose: 25.6 mg/kg/injection, schedule: Q04DX002 (ip), vehicle: saline with Tween-80 88 % of control | dose: 64.0 mg/kg/injection, schedule: Q04DX002 (ip), vehicle: saline with Tween-80 88 % of control | dose: 160.0 mg/kg/injection, schedule: Q04DX002 (ip), vehicle: saline with Tween-80 88 % of control | dose: 400.0 mg/kg/injection, schedule: Q04DX002 (ip), vehicle: saline with Tween-80 92 % of control

COc1ccc(C(=O)CCC(=O)O)cc1OC
inactive: [9] 97 % of control | [10] 100 % of control | [11] 92 % of control | [12] 92 % of control

CCOC(=O)/C=C\n1c(=O)cc(C)c2ccccc21
inactive: [13] 98 % of control | dose: 100.0 mg/kg/injection, schedule: Q04DX003 (ip), vehicle: Klucel (hydroxypropylcellulose) (HPC) 89 % of control | [14] 108 % of control | dose: 200.0 mg/kg/injection, schedule: Q04DX003 (ip), vehicle: Klucel (hydroxypropylcellulose) (HPC) 92 % of control | [15] 108 % of control | dose: 400.0 mg/kg/injection, schedule: Q04DX003 (ip), vehicle: Klucel (hydroxypropylcellulose) (HPC) 87 % of control

CSCCC(NC(=O)CN)C(=O)O (configuration not stated)
inactive: [4] 96 % of control | [5] 104 % of control | [6] 102 % of control

CCOC(=O)C1C(=O)C(C(=O)Nc2ccccc2)C(=O)C(C(=O)OCC)C1c1ccc(OC)c(OC)c1OC (configuration not stated)
inactive: dose: 50.0 mg/kg/injection, schedule: Q01DX001 (ip), vehicle: saline with Tween-80 96 % of control | [16] 100 % of control | [17] 94 % of control

COc1ccc(Cl)cc1/C=C/C=N/NC(=O)c1cccc(C)c1O
inactive: dose: 75.0 mg/kg/injection, schedule: Q01DX001 (ip), vehicle: carboxymethylcellulose (CMC) 86 % of control | dose: 150.0 mg/kg/injection, schedule: Q01DX001 (ip), vehicle: carboxymethylcellulose (CMC) 89 % of control | dose: 300.0 mg/kg/injection, schedule: Q01DX001 (ip), vehicle: carboxymethylcellulose (CMC) 86 % of control

O=[N+]([O-])C12CCCCC1([N+](=O)[O-])CCCC2 (configuration not stated)
inactive: [18] 103 % of control | [19] 92 % of control | [20] 108 % of control

OCC1(CO)CCC=CO1
inactive: [9] 113 % of control | [10] 100 % of control | [11] 100 % of control | [12] 97 % of control

CC1CCOCO1 (configuration not stated)
inactive: [9] 98 % of control | [10] 98 % of control | [11] 95 % of control | [12] 95 % of control

CCCCCC/C=C1/CCC/C1=N\NC(=O)c1ccc[n+](C)c1
inactive: [21] 100 % of control | [22] 101 % of control | [18] 100 % of control

Cc1cc(=O)[nH]c(NCCCCCC(=O)O)n1
inactive: [21] 104 % of control | [22] 104 % of control | [18] 101 % of control

CC(=O)c1cccc(NC(=O)Oc2ccc(C(=O)OCc3ccccc3)cc2)c1
inactive: [13] 98 % of control | [14] 95 % of control | [15] 106 % of control

CCOC(=O)C[N+]1(C)CCC(O)CC1 (configuration not stated)
inactive: [18] 98 % of control | [19] 98 % of control | [20] 101 % of control

NC(=O)c1cccn1-c1ccc2ncccc2c1
inactive: [1] 89 % of control | [2] 92 % of control | [3] 86 % of control

CO/N=C1\CC(C)N2C(=O)C(C(C)C)NC(=O)C(NC(=O)c3c4nc5c(C(=O)NC6C(=O)NC(C(C)C)C(=O)N7C(C)CC(O)C7C(=O)N(C)CC(=O)N(C)C(C(C)C)C(=O)OC6C)ccc(C)c5oc-4c(C)c(=O)c3N)C(CO)OC(=O)C(C)N(C)C(=O)CN(C)C(=O)C12 (configuration not stated)
inactive: dose: 0.1 mg/kg/injection, schedule: Q01DX009 (ip), vehicle: saline + alcohol 96 % of control | dose: 0.2 mg/kg/injection, schedule: Q01DX009 (ip), vehicle: saline + alcohol 102 % of control | dose: 0.3 mg/kg/injection, schedule: Q04DX003 (ip), vehicle: saline + alcohol 96 % of control | dose: 0.4 mg/kg/injection, schedule: Q01DX009 (ip), vehicle: saline + alcohol 97 % of control | dose: 0.6 mg/kg/injection, schedule: Q04DX003 (ip), vehicle: saline + alcohol 107 % of control | dose: 0.8 mg/kg/injection, schedule: Q01DX001 (ip), vehicle: saline + alcohol 97 % of control | dose: 0.8 mg/kg/injection, schedule: Q01DX009 (ip), vehicle: saline + alcohol 111 % of control | dose: 1.2 mg/kg/injection, schedule: Q04DX003 (ip), vehicle: saline + alcohol 97 % of control | dose: 1.6 mg/kg/injection, schedule: Q01DX001 (ip), vehicle: saline + alcohol 103 % of control | dose: 1.6 mg/kg/injection, schedule: Q01DX009 (ip), vehicle: saline + alcohol 100 % of control | dose: 2.4 mg/kg/injection, schedule: Q04DX003 (ip), vehicle: saline + alcohol 112 % of control | dose: 3.2 mg/kg/injection, schedule: Q01DX001 (ip), vehicle: saline + alcohol 110 % of control | dose: 4.8 mg/kg/injection, schedule: Q04DX003 (ip), vehicle: saline + alcohol 110 % of control | dose: 6.4 mg/kg/injection, schedule: Q01DX001 (ip), vehicle: saline + alcohol 106 % of control | dose: 12.8 mg/kg/injection, schedule: Q01DX001 (ip), vehicle: saline + alcohol 101 % of control

CCOC(=O)c1c(N)sc2c1CCC2
inactive: [16] 110 % of control | [7] 102 % of control | dose: 100.0 mg/kg/injection, schedule: Q04DX002 (ip), vehicle: saline 93 % of control | [17] 103 % of control | [8] 107 % of control | dose: 200.0 mg/kg/injection, schedule: Q04DX002 (ip), vehicle: saline 96 % of control | dose: 400.0 mg/kg/injection, schedule: Q01DX001 (ip), vehicle: saline with Tween-80 98 % of control | dose: 400.0 mg/kg/injection, schedule: Q04DX002 (ip), vehicle: saline 89 % of control
